Assay results published in the supplement of paper PMC10307832.

Legend:
Experiment in all cases: relative viability (nuclei count vs DMSO), 5 days (fraction); higher = more cells survive
[1] = compound: C1COCCN1C2=NC(=NC3=C2OC4=C3C=CC=N4)C5=CC(=CC=C5)NC(=O)C6=CN=C(C=C6)N + Cc1cc(Nc2cc(N3CCN(C)CC3)nc(Sc3ccc(NC(=O)C4CC4)cc3)n2)n[nH]1 [Tozasertib] (partner 0.1 µM)
Method in brief: (§1)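 Lung cancer cell lines were pin-tool dosed in 1536-well plates on the day after seeding, with either a lone drug or a fixed anchor-drug dose plus five library-drug doses (not always all listed) in √10 steps. Nuclei were counted on 4× images after 5 days. Relative viability is the ratio of treated-well to vehicle-well nuclei counts, with each value a median of duplicate plates.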

Entinostat + Pictilisib = compound: Nc1ccccc1NC(=O)c1ccc(CNC(=O)OCc2cccnc2)cc1 [Entinostat] + CS(=O)(=O)N1CCN(Cc2cc3nc(-c4cccc5[nH]ncc45)nc(N4CCOCC4)c3s2)CC1 [Pictilisib] (partner 1 µM)
Method in brief: as §1

Entinostat + Olaparib = compound: Nc1ccccc1NC(=O)c1ccc(CNC(=O)OCc2cccnc2)cc1 [Entinostat] + O=C(c1cc(Cc2n[nH]c(=O)c3ccccc23)ccc1F)N1CCN(C(=O)C2CC2)CC1 [Olaparib] (partner 8 µM)
Method in brief: as §1

Entinostat + Bortezomib = compound: Nc1ccccc1NC(=O)c1ccc(CNC(=O)OCc2cccnc2)cc1 [Entinostat] + CC(C)C[C@H](NC(=O)[C@H](Cc1ccccc1)NC(=O)c1cnccn1)B(O)O [Bortezomib] (partner 0.002 µM)
Method in brief: as §1

| Cell Line | relative viability ([1]; first compound 0.02 µM) | relative viability ([1]; first compound 0.06325 µM) | relative viability ([1]; first compound 0.2 µM) | relative viability ([1]; first compound 0.6325 µM) | relative viability ([1]; first compound 2 µM) | relative viability (Entinostat + Pictilisib; first compound 0.02 µM) | relative viability (Entinostat + Pictilisib; first compound 0.06325 µM) | relative viability (Entinostat + Pictilisib; first compound 0.2 µM) | relative viability (Entinostat + Pictilisib; first compound 0.6325 µM) | relative viability (Entinostat + Pictilisib; first compound 2 µM) | relative viability (Entinostat + Olaparib; first compound 0.02 µM) | relative viability (Entinostat + Olaparib; first compound 0.06325 µM) | relative viability (Entinostat + Olaparib; first compound 0.2 µM) | relative viability (Entinostat + Olaparib; first compound 0.6325 µM) | relative viability (Entinostat + Olaparib; first compound 2 µM) | relative viability (Entinostat + Bortezomib; first compound 0.02 µM) | relative viability (Entinostat + Bortezomib; first compound 0.06325 µM) | relative viability (Entinostat + Bortezomib; first compound 0.2 µM) | relative viability (Entinostat + Bortezomib; first compound 0.6325 µM) | relative viability (Entinostat + Bortezomib; first compound 2 µM) |
| --- | --- | --- | --- | --- | --- | --- | --- | --- | --- | --- | --- | --- | --- | --- | --- | --- | --- | --- | --- | --- |
| NCI-H1755 | 0.606 | 0.572 | 0.468 | 0.414 | 0.473 | 0.383 | 0.408 | 0.367 | 0.204 | 0.205 | 0.877 | 0.816 | 0.598 | 0.458 | 0.377 | 0.932 | 0.956 | 0.9 | 0.534 | 0.321 |
| NCI-H596 | 0.85 | 0.932 | 0.874 | 0.761 | 0.661 | 0.401 | 0.4 | 0.372 | 0.333 | 0.348 | 0.748 | 0.662 | 0.667 | 0.558 | 0.405 | 1.09 | 1.16 | 1 | 0.974 | 0.902 |
| NCI-H1651 | 0.685 | 0.76 | 0.416 | 0.522 | 0.338 | 0.624 | 0.674 | 0.572 | 0.452 | 0.365 | 0.2 | 0.199 | 0.199 | 0.174 | 0.154 | 0.958 | 0.923 | 0.921 | 0.926 | 0.84 |
| NCI-H1437 | 0.437 | 0.424 | 0.398 | 0.377 | 0.241 | 0.415 | 0.255 | 0.182 | 0.147 | 0.112 | 0.491 | 0.378 | 0.309 | 0.228 | 0.196 | 0.438 | 0.323 | 0.239 | 0.168 | 0.126 |
